Several values for one entry are separate records, joined by “and”; a condition that tells them apart may be missing. Equal values may be shown once. Read-outs that look alike come from different tables or passages of the source.
Test: Plasma pharmacokinetics of SU5416 and metabolites in Phase I patients (HPLC UV)
Format: in vivo, human
Conditions: twice weekly i.v. infusion; for half-life: read-out: T1/2λz (converted); for clearance: read-out: CL (observed) (converted); for Vd: read-out: Vz (observed)
Experimental: Samples were taken prior to treatment infusion, 15 min into the infusion, at completion of the infusion and then at 5, 10, 20, 30, 45, 60, 120 and 240 min following the infusion. […] At the designated times, 4.0 ml of blood were collected into a lithium heparin tube, gently inverted and placed on ice to maintain the sample at 2–8°C. All samples were immediately centrifuged at 6000 r.p.m. at 4°C for 10 min, the supernatant divided between two 1.5 ml Nalgene cryovials and snap frozen in liquid nitrogen. Separated plasma samples were subsequently stored at −70°C until analysis.
Pharmacokinetic analysis was performed using a fully validated HPLC UV method ([Stopeck et al, 2002]). Plasma samples, standards (25–2000 ng ml^−1) and quality controls spiked with internal standards were extracted with acetonitrile. Following centrifugation, drying and reconstitution in 200 μl mobile phase, 20 μl were analysed by HPLC UV. Chromatography was carried out using a C18 analytical column, with a gradient mobile phase containing acetonitrile and 10 mM ammonium formate at pH 2.6. The flow rate was 0.8 ml min^−1 and the run-time 21 min. Detection was via UV absorption at a wavelength of 440 nm. The accuracy of the assay, reflected in relative error of measured concentration to theoretical (prepared) concentrations, was between 0.9 and 5.6% for all quality control samples.
Pharmacokinetic parameters were evaluated using WinNonLin Software®.

[1] = human, plasma, iv, 85 mg m^−2, individual patients, dose 85 mg m^−2, cycle 1inj8
[2] = human, plasma, iv, 85 mg m^−2, individual patients, dose 85 mg m^−2, cycle 2inj8
[3] = human, plasma, iv, 110 mg m^−2, individual patients, dose 110 mg m^−2, cycle 1inj2
[4] = human, plasma, iv, 110 mg m^−2, individual patients, dose 110 mg m^−2, cycle 1inj8
[5] = individual patients, dose 48 mg m^−2, cycle 1inj2
[6] = individual patients, dose 48 mg m^−2, cycle 1inj8
[7] = individual patients, dose 65 mg m^−2, cycle 1inj2
[8] = individual patients, dose 65 mg m^−2, cycle 1inj8
[9] = individual patients, dose 85 mg m^−2, cycle 1inj2
[10] = individual patients, dose 85 mg m^−2, cycle 1inj8
[11] = individual patients, dose 110 mg m^−2, cycle 1inj2
[12] = individual patients, dose 145 mg m^−2, cycle 1inj2
[13] = individual patients, dose 145 mg m^−2, cycle 1inj8
[14] = individual patients, dose 145 → 190 mg m^−2, cycle 1inj2
[15] = individual patients, dose 145 → 190 mg m^−2, cycle 1inj8

SMILES: Cc1cc(C)c(/C=C2\C(=O)Nc3ccccc32)[nH]1 [SU5416, Z-3-[(2,4-dimethylpyrrol-5-yl)methylidenyl]-2-indolinone]
- half-life (human, plasma, iv, 85 mg m^−2, individual patients, dose 85 mg m^−2, cycle 1inj2): 23.4 min
- AUC(0-t) [1]: 2380 ng·h/mL
- clearance [1]: 1000 mL/min
- AUC(0-t) [2]: 1620 ng·h/mL
- clearance [2]: 1470 mL/min
- Cmax (human, plasma, iv, 85 mg m^−2, individual patients, dose 85 mg m^−2, cycle 2inj8, read-out: Cmax): 2800 ng/mL
- half-life [2]: 44.4 min
- Vd [2]: 94 L
- AUC(0-t) [3]: 4020 ng·h/mL
- clearance [3]: 767 mL/min
- Cmax (human, plasma, iv, 110 mg m^−2, individual patients, dose 110 mg m^−2, cycle 1inj2, read-out: Cmax): 3510 ng/mL
- half-life [3]: 37.2 min
- Vd [3]: 41 L
- AUC(0-t) [4]: 3800 ng·h/mL
- clearance [4]: 1400 mL/min
- Cmax (human, plasma, iv, 110 mg m^−2, individual patients, dose 110 mg m^−2, cycle 1inj8, read-out: Cmax): 3580 ng/mL
- half-life [4]: 37.2 min
- Vd [4]: 75 L
- AUClast [5]: 463 ng·h/mL and 848 ng·h/mL and 1143 ng·h/mL
- CL (observed) [5]: 181 L/h and 94 L/h and 83 L/h
- Cmax [5]: 2724 ng/mL and 2253 ng/mL
- T1/2λz [5]: 30.6 min and 36.6 min
- Vz (observed) [5]: 72 L
- CL (observed) [6]: 115 L/h
- Cmax [6]: 1289 ng/mL
- T1/2λz [6]: 25.2 min
- AUClast [7]: 2510 ng·h/mL
- CL (observed) [7]: 74 L/h
- Cmax [7]: 2968 ng/mL
- T1/2λz [7]: 49.2 min
- Vz (observed) [7]: 88 L
- AUClast [8]: 2068 ng·h/mL
- CL (observed) [8]: 89 L/h
- Cmax [8]: 2914 ng/mL
- T1/2λz [8]: 39 min
- Vz (observed) [8]: 84 L
- AUClast [9]: 1151 ng·h/mL and 2094 ng·h/mL
- CL (observed) [9]: 133 L/h and 102 L/h
- Cmax [9]: 1624 ng/mL and 2057 ng/mL
- T1/2λz [9]: 42.6 min
- Vz (observed) [9]: 45 L and 136 L and 104 L
- AUClast [10]: 1250 ng·h/mL
- Cmax [10]: 3672 ng/mL and 1354 ng/mL
- T1/2λz [10]: 36 min and 123 min
- Vz (observed) [10]: 52 L and 447 L
- AUClast [11]: 2345 ng·h/mL and 3842 ng·h/mL
- CL (observed) [11]: 70 L/h and 83 L/h
- Cmax [11]: 2750 ng/mL and 3237 ng/mL
- T1/2λz [11]: 41.4 min and 33 min
- Vz (observed) [11]: 70 L and 66 L
- AUClast [12]: 4946 ng·h/mL and 3471 ng·h/mL and 2021 ng·h/mL
- CL (observed) [12]: 55 L/h and 92 L/h and 150 L/h
- Cmax [12]: 4851 ng/mL and 2869 ng/mL and 1217 ng/mL
- T1/2λz [12]: 53.4 min and 42.6 min
- Vz (observed) [12]: 119 L and 153 L
- AUClast [13]: 2349 ng·h/mL
- CL (observed) [13]: 62 L/h and 169 L/h
- Cmax [13]: 2080 ng/mL
- T1/2λz [13]: 40.2 min
- Vz (observed) [13]: 51 L and 164 L
- AUClast [14]: 3389 ng·h/mL and 1928 ng·h/mL and 3683 ng·h/mL and 3397 ng·h/mL and 2621 ng·h/mL and 2870 ng·h/mL and 2465 ng·h/mL and 1267 ng·h/mL and 4094 ng·h/mL and 1578 ng·h/mL
- Cmax [14]: 4159 ng/mL and 2474 ng/mL and 2961 ng/mL and 2774 ng/mL and 2894 ng/mL and 2795 ng/mL and 3202 ng/mL and 1177 ng/mL and 4508 ng/mL and 2625 ng/mL
- T1/2λz [14]: 40.8 min and 30 min and 47.4 min and 39.6 min and 81.6 min and 40.2 min and 69 min and 22.8 min and 29.4 min and 41.4 min
- Vz (observed) [14]: 63 L and 70 L and 85 L and 196 L and 97 L and 119 L and 118 L and 39 L and 106 L
- Cmax [15]: 3370 ng/mL and 2274 ng/mL and 2066 ng/mL and 2161 ng/mL and 493 ng/mL and 4283 ng/mL
- Vz (observed) [15]: 57 L and 74 L and 176 L and 488 L and 214 L and 46 L

From publication PMC2361651 (British Journal of Cancer, 2005)
